The numbers were not newly measured in patent US20160000731A1, “SORE-THROAT COMPOSITIONS AND RELATED METHODS” (Xlear, Inc., priority 2014, published 2016), which cites them from elsewhere.

One series has as its system Streptococcus pneumonia. As to conditions: in vitro, during its logarithmic growth phase.
The subject of the next series is dental caries. As to conditions: regular consumption.

Turning to `OC[C@@H](O)[C@H](O)[C@@H](O)CO` [Xylitol], in the series with Streptococcus pneumonia, the “growth of Streptococcus pneumonia” value was “inhibit the growth”. Moreover, the “incidence of dental caries” value in the series on dental caries is recorded as “reduce the incidence of dental caries”.
